Data: patent publication US6998143B1, “Ferric fortification system” (Nestec S.A., priority 1999, dated 2006)

Experiments:
[1] = tested on: weanling male Sprague-Dawley rats; test: Iron bioavailability by hemoglobin repletion in anemic rats (slope-ratio); format: in vivo, rat
Procedure: Animals:—The animals used are weanling male Sprague-Dawley rats aged 3 weeks (IFFA-CREDO, L'Arbresle, France).
This diet is casein based and provides for the nutritional requirements of growing rats except for iron.
Diet 1:—The control diet supplemented with the complex of example 2 to provide 10 mg/kg iron.
Diet 2:—The control diet supplemented with the complex of example 2 to provide 20 mg/kg iron.
1) Hemoglobin analysis is performed by anaesthetizing the rats with isoflurane and then drawing a sample of 200 μL of blood from the orbital venous plexus. Blood hemoglobin level in the sample is determined by the cyanmethemoglobin method (Hb kit MPR 3, Bochringer Mannheim GmbH, Germany), using an automated instrument (Hemocue, Baumann-Medical SA, Wetzikon, Switzerland). Commercial quality control blood samples (Dia-HT Kontrollblut, Dia MED, Cressier, Switzerland) having a range of hemoglobin levels are measured with all hemoglobin determinations.
A multiple regression equation relates amounts of iron added to the hemoglobin levels. The equation provides one straight line per diet which intercepts at zero dose.
Procedure:—Rats are housed individually in polycarbonate cages, fitted with stainless steel grids. The animals are allowed free access to distilled water. […] Fresh diet is supplied daily. Spoiling of diet by rats is reduced by covering the diet with a grid.
After 24 days, hemoglobin and weight is determined. Fifty rats with hemoglobin levels between […] are randomized into 5 groups of 10 having approximately equal mean hemoglobin and body weight. Each group of animals is fed one of the experimental diets for 14 days. The rats are fed the diets ad libitum beginning with 20 g/day at day 0. The rats have free access to distilled water. Individual food consumption is measured daily. After 14 days, the rats are weighed and hemoglobin is determined.

[2] = Lipid oxidation induction time in fish oil (Rancimat); format: physicochemical; conditions: fish oil in place of chicken fat, 100° C.
Procedure: The powder of example 3 is added to chicken fat to provide 40 mg of iron per 1000 g of fat. As a negative control, ferric sulfate is added to chicken fat to provide the same iron loading. Chicken fat without any added iron is used as a positive control.
The fat samples are heated to 100° C. and the lipid oxidation induction time is determined using a Rancimat. No difference in induction time between the fat fortified with the powder of example 3 and the positive control is determined. The induction time of the negative control is 30 to 40% less.
The procedure of example 8 is repeated except that fish oil is used in place of chicken fat. The results are similar.

[3] = diet with 10 mg/kg added Fe for 14 days
[4] = diet with 20 mg/kg added Fe for 14 days

| Compound | Initial hemoglobin, mean (standard deviation) ([1]; baseline before diet with 10 mg/kg added Fe) | Initial hemoglobin, mean (standard deviation) ([1]; baseline before diet with 20 mg/kg added Fe) | Difference in hemoglobin (final minus initial), mean [1, 3] [g/dL] | Final hemoglobin, mean [1, 3] [g/dL] | Difference in hemoglobin (final minus initial), mean [1, 4] [g/dL] | Final hemoglobin, mean [1, 4] [g/dL] | lipid oxidation induction time results compared with those of example 8 [2] |
| --- | --- | --- | --- | --- | --- | --- | --- |
| O.O.O.O.O.O.O.O=S(=O)([O-])[O-].[Fe+2] [FeSO4.7H2O, ferrous sulfate heptahydrate] | 5.12 (0.41) g/dl | 5.12 (0.40) g/dl | 3.54 | 8.66 | 6.41 | 11.53 |  |
| O=S(=O)([O-])[O-].O=S(=O)([O-])[O-].O=S(=O)([O-])[O-].[Fe+3].[Fe+3] [ferric sulfate] |  |  |  |  |  |  | similar |
